Reference: patent publication US20160154122A1, “Scintillating Organic Materials and Methods For Detecting Neutron and Gamma Radiation” (Nanoptics, Incorporated, priority 2011, published 2016)
Read-outs that look alike come from different tables or passages of the source.

Experiments:
[1] = Solubility of base dye in polystyrene; type: physicochemical; settings: base dye measured to be soluble in polystyrene
[2] = result in words; cited from earlier work
[3] = result in words; cited from earlier work; remark: listed apart in the source
[4] = From the text: Salts of lithium can have a variety of properties, including one or more of the following: many salts of lithium are very chemically reactive; others are extremely insoluble; some are not produced in high volume and are, therefore, expensive to use at high concentration; and others have elements with moderate to high atomic numbers, causing quenching of the scintillation light.

For c1ccc2ccccc2c1 [Naphthalene], the “Solubility” value [1] was >1000 mM.
For CN1CCCC1=O [NMP, Methylpyrrolidone], the Miscibility with water [2] is given as “miscible”.
In the case of c1ccc(-c2cnc(-c3ccccc3)o2)cc1 [2,5 Diphenyloxazole], the “Solubility” value [1] was >1500 mM.
For C=CN1CCCC1=O [N-Vinyl-2-Pyrrolidone], the Hygroscopic [3] is given as “Yes”.
In the case of Cc1ccc2ccccc2c1 [2-Methyl Naphthalene], the “Solubility” value [1] was >1000 mM.
For CN1CCN(C)C1=O [DMI, 1,3 Dimethyl 2-Imidazolidone], the Miscibility with water [2] is given as “miscible”.
With O=C([O-])c1ccccc1.[Li+] [Lithium Benzoate] the “Percentage wt of Lithium in Solution H2O” value [4] was 2.40 % wt/wt.
With Cc1ccc(C)c(C)c1 [pseudocumene] the “Solubility” value [1] was >1000 mM.
In the case of [Li+].[O-][Cl+3]([O-])([O-])[O-] [Lithium Perchlorate], the “Percentage wt of Lithium in Solution DMSO” value ([4]; achievable lithium ions in DMSO) was 2.05 % wt/wt, the “Percentage wt of Lithium in Solution H2O” value ([4]; achievable lithium ions in H2O) was 3.70 % wt/wt and the “Solubility of Compound (wt %) DMSO” value ([4]; maximum solubility in DMSO) was 31.50 wt %. The “Solubility of Compound (wt %) H2O” value ([4]; maximum solubility in H2O) was 56.10 wt %.
With Cc1ccc(C)cc1 [p-Xylene] the “Solubility” value [1] was >1000 mM.
In the case of [Cl-].[Li+] [Lithium Chloride], the “Solubility of Compound (wt %) DIM” value [4] was >15.0 wt %, the “Solubility of Compound (wt %) DMSO” value [4] was 10.20 wt % and the “Solubility of Compound (wt %) H2O” value [4] was 83.50 wt %.
In the case of Cc1cccc2ccccc12 [1-Methyl Naphthalene], the “Solubility” value [1] was >1000 mM.
